Data reported in PubChem BioAssay AID330 (DTP/NCI, 2004).
“And” between values parts separate entries of the source, which are not always exact repeats. Equal entries are not always repeated. Toxic doses and inconclusive results are not listed.

Test system: P388 leukemia ip, CD2F1 mice, survival T/C
Experiment: NCI In Vivo Anticancer Drug Screen. Data for tumor model P388 Leukemia (intraperitoneal) in CD2F1 (CDF1) mice
Conditions: endpoint: median survival time, higher = longer survival
How it was run: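 Mice carrying the transplanted tumor received test compound or vehicle. Survival was recorded in each group, and the value is the treated-group measurement divided by that of the vehicle-treated control group.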

[1] = dose: 12.5 mg/kg/injection, schedule: Q01DX005 (ip), vehicle: saline with Tween-80
[2] = dose: 25.0 mg/kg/injection, schedule: Q01DX005 (ip), vehicle: saline with Tween-80
[3] = dose: 12.5 mg/kg/injection, schedule: Q01DX009 (ip), vehicle: saline with Tween-80
[4] = dose: 25.0 mg/kg/injection, schedule: Q01DX009 (ip), vehicle: saline with Tween-80
[5] = dose: 50.0 mg/kg/injection, schedule: Q01DX009 (ip), vehicle: saline with Tween-80
[6] = dose: 100.0 mg/kg/injection, schedule: Q01DX009 (ip), vehicle: saline with Tween-80
[7] = dose: 200.0 mg/kg/injection, schedule: Q01DX009 (ip), vehicle: saline with Tween-80
[8] = dose: 100.0 mg/kg/injection, schedule: Q04DX003 (ip), vehicle: saline
[9] = dose: 200.0 mg/kg/injection, schedule: Q04DX003 (ip), vehicle: saline
[10] = dose: 400.0 mg/kg/injection, schedule: Q04DX003 (ip), vehicle: saline
[11] = dose: 100.0 mg/kg/injection, schedule: Q04DX003 (ip), vehicle: saline with Tween-80
[12] = dose: 200.0 mg/kg/injection, schedule: Q04DX003 (ip), vehicle: saline with Tween-80
[13] = dose: 50.0 mg/kg/injection, schedule: Q01DX005 (ip), vehicle: saline with Tween-80
[14] = dose: 30.0 mg/kg/injection, schedule: Q01DX005 (ip), vehicle: saline with Tween-80
[15] = dose: 60.0 mg/kg/injection, schedule: Q01DX005 (ip), vehicle: saline with Tween-80
[16] = dose: 120.0 mg/kg/injection, schedule: Q01DX005 (ip), vehicle: saline with Tween-80
[17] = dose: 240.0 mg/kg/injection, schedule: Q01DX005 (ip), vehicle: saline with Tween-80
[18] = dose: 50.0 mg/kg/injection, schedule: Q01DX005 (ip), vehicle: saline
[19] = dose: 100.0 mg/kg/injection, schedule: Q01DX005 (ip), vehicle: saline
[20] = dose: 200.0 mg/kg/injection, schedule: Q01DX005 (ip), vehicle: saline

Compound: C=C1C(=C)C2OC1c1cc3c(cc12)C(=O)C=CC3=O
- T/C [1]: 100 % of control
- T/C [2]: 91 % of control

Compound: COc1ccc(CN2CCCN(/N=C/c3c4c(O)c5c(O)c(C)c6c(c5c3O)C(=O)C(C)(O/C=C/C(OC)C(C)C(OC(C)=O)C(C)C(O)C(C)C(O)C(C)/C=C/C=C(C)C(=O)N4)O6)CC2)cc1 (centres undefined)
- T/C [3]: 109 % of control
- T/C [4]: 117 % of control
- T/C [5]: 103 % of control and 97 % of control
- T/C [6]: 100 % of control
- T/C [7]: 97 % of control

Compound: CC(C)(C)OC(=O)NNS(=O)(=O)CCC(N)C(=O)O (centres undefined)
- T/C (dose: 12.5 mg/kg/injection, schedule: Q01DX009 (ip), vehicle: other): 106 % of control
- T/C (dose: 25.0 mg/kg/injection, schedule: Q01DX009 (ip), vehicle: other): 106 % of control
- T/C (dose: 50.0 mg/kg/injection, schedule: Q01DX009 (ip), vehicle: other): 97 % of control
- T/C (dose: 100.0 mg/kg/injection, schedule: Q01DX009 (ip), vehicle: other): 97 % of control
- T/C (dose: 200.0 mg/kg/injection, schedule: Q01DX009 (ip), vehicle: other): 100 % of control

Compound: O=C(Nc1ccc(C(=O)Nc2ccc(C3=NCCCN3)cc2)cc1)Nc1ccc(C2=NCCCN2)cc1
- T/C (dose: 6.25 mg/kg/injection, schedule: Q04DX003 (ip), vehicle: saline with Tween-80): 108 % of control
- T/C [3]: 204 % of control
- T/C [4]: 122 % of control
- T/C (dose: 25.0 mg/kg/injection, schedule: Q04DX003 (ip), vehicle: saline with Tween-80): 150 % of control
- T/C [8]: 90 % of control

Compound: COC1C/C(=N\OC(C)=O)C2OC(c3ccccc3)OCC2O1 (centres undefined)
- T/C [5]: 93 % of control
- T/C [6]: 96 % of control
- T/C [7]: 95 % of control

Compound: CC(=O)NS(=O)(=O)c1ccc(N=NC2C(=O)N(C(=O)c3ccccc3)N=C2C)cc1 (centres undefined)
- T/C (dose: 50.0 mg/kg/injection, schedule: Q01DX001 (ip), vehicle: Klucel (hydroxypropylcellulose) (HPC)): 93 % of control
- T/C (dose: 100.0 mg/kg/injection, schedule: Q01DX001 (ip), vehicle: Klucel (hydroxypropylcellulose) (HPC)): 95 % of control
- T/C (dose: 200.0 mg/kg/injection, schedule: Q01DX001 (ip), vehicle: Klucel (hydroxypropylcellulose) (HPC)): 93 % of control

Compound: CCO/C=C1\SC(=S)N(c2ccc(O)cc2)C1=O
- T/C [8]: 113 % of control
- T/C [9]: 113 % of control
- T/C [10]: 109 % of control

Compound: N=C(N)SCc1ccc(C(=O)Oc2ccc([N+](=O)[O-])cc2)cc1
- T/C [11]: 100 % of control
- T/C [12]: 104 % of control

Compound: OCc1c(CO)c(-c2ccc(Cl)c(Cl)c2)n2c1CCC2
- T/C (dose: 13.5 mg/kg/injection, schedule: Q01DX009 (ip), vehicle: saline with Tween-80): 107 % of control
- T/C (dose: 27.0 mg/kg/injection, schedule: Q01DX009 (ip), vehicle: saline with Tween-80): 109 % of control
- T/C (dose: 54.0 mg/kg/injection, schedule: Q01DX009 (ip), vehicle: saline with Tween-80): 109 % of control
- T/C [6]: 116 % of control and 118 % of control
- T/C [7]: 116 % of control

Compound: CC(C)c1ccc(C[n+]2ccccc2/C=N/O)cc1
- T/C [1]: 100 % of control
- T/C [2]: 95 % of control
- T/C [13]: 103 % of control

Compound: CC1CN1P(=S)(N1CCCC1)N1CC1C (centres undefined)
- T/C (dose: 64.0 mg/kg/injection, schedule: Q04DX003 (ip), vehicle: saline with Tween-80): 116 % of control
- T/C (dose: 66.0 mg/kg/injection, schedule: Q01DX009 (ip), vehicle: saline with Tween-80): 150 % of control
- T/C [6]: 150 % of control
- T/C (dose: 150.0 mg/kg/injection, schedule: Q01DX009 (ip), vehicle: saline with Tween-80): 86 % of control
- T/C [12]: 159 % of control
- T/C (dose: 256.0 mg/kg/injection, schedule: Q04DX003 (ip), vehicle: saline with Tween-80): 100 % of control

Compound: CC(=O)Oc1ccccc1C(=O)OC1CC2CCC1(C)C2(C)C (centres undefined)
- T/C [13]: 92 % of control
- T/C (dose: 100.0 mg/kg/injection, schedule: Q01DX005 (ip), vehicle: saline with Tween-80): 97 % of control
- T/C (dose: 200.0 mg/kg/injection, schedule: Q01DX005 (ip), vehicle: saline with Tween-80): 98 % of control

Compound: C=C(CCCC)[Se]c1ccccc1
- T/C [4]: 103 % of control and 107 % of control
- T/C [5]: 107 % of control and 95 % of control
- T/C [6]: 101 % of control and 117 % of control

Compound: CCC(Br)C1C/C=C\CC2OC(C=C=CBr)CC2O1 (centres undefined)
- T/C (dose: 3.12 mg/kg/injection, schedule: Q01DX005 (ip), vehicle: Klucel (hydroxypropylcellulose) (HPC)): 100 % of control
- T/C (dose: 3.75 mg/kg/injection, schedule: Q01DX001 (ip), vehicle: Klucel (hydroxypropylcellulose) (HPC)): 94 % of control
- T/C (dose: 6.25 mg/kg/injection, schedule: Q01DX005 (ip), vehicle: Klucel (hydroxypropylcellulose) (HPC)): 95 % of control and 98 % of control
- T/C (dose: 7.5 mg/kg/injection, schedule: Q01DX001 (ip), vehicle: Klucel (hydroxypropylcellulose) (HPC)): 90 % of control
- T/C (dose: 12.5 mg/kg/injection, schedule: Q01DX005 (ip), vehicle: Klucel (hydroxypropylcellulose) (HPC)): 95 % of control and 104 % of control
- T/C (dose: 15.0 mg/kg/injection, schedule: Q01DX001 (ip), vehicle: Klucel (hydroxypropylcellulose) (HPC)): 91 % of control
- T/C (dose: 25.0 mg/kg/injection, schedule: Q01DX005 (ip), vehicle: Klucel (hydroxypropylcellulose) (HPC)): 91 % of control and 100 % of control
- T/C (dose: 30.0 mg/kg/injection, schedule: Q01DX001 (ip), vehicle: Klucel (hydroxypropylcellulose) (HPC)): 91 % of control
- T/C (dose: 50.0 mg/kg/injection, schedule: Q01DX005 (ip), vehicle: Klucel (hydroxypropylcellulose) (HPC)): 98 % of control
- T/C (dose: 100.0 mg/kg/injection, schedule: Q01DX005 (ip), vehicle: Klucel (hydroxypropylcellulose) (HPC)): 96 % of control

Compound: COC(=O)CC(c1ccc(OC)cc1)c1cc2c(cc1OC)OCO2 (centres undefined)
- T/C (dose: 50.0 mg/kg/injection, schedule: Q01DX005 (ip), vehicle: distilled water + Tween-80): 97 % of control
- T/C (dose: 100.0 mg/kg/injection, schedule: Q01DX005 (ip), vehicle: distilled water + Tween-80): 97 % of control
- T/C (dose: 200.0 mg/kg/injection, schedule: Q01DX005 (ip), vehicle: distilled water + Tween-80): 97 % of control

Compound: COc1ccc2c(c1)C(O)(CN)CCCCC(OC)CCCC2 (centres undefined)
- T/C (dose: 7.5 mg/kg/injection, schedule: Q01DX005 (ip), vehicle: saline with Tween-80): 100 % of control
- T/C (dose: 15.0 mg/kg/injection, schedule: Q01DX005 (ip), vehicle: saline with Tween-80): 101 % of control
- T/C [14]: 99 % of control
- T/C [15]: 101 % of control

Compound: O=C(Nc1cccc(Cl)c1Cl)c1cc(/C=C/c2ccc([N+](=O)[O-])cc2)on1
- T/C [14]: 95 % of control
- T/C [15]: 91 % of control and 96 % of control
- T/C [16]: 87 % of control and 95 % of control
- T/C [17]: 97 % of control

Compound: O=C1NN2CCN=C2c2ccncc21
- T/C [18]: 97 % of control
- T/C [19]: 103 % of control
- T/C [20]: 100 % of control

Compound: Cc1ccc(O)c(C(NCCO)c2ccccc2)c1 (centres undefined)
- T/C (dose: 100.0 mg/kg/injection, schedule: Q04DX002 (ip), vehicle: saline): 102 % of control

Compound: Oc1cc2c3c(c1)-c1c(ccc(O)c1O)CC3NCC2 (centres undefined)
- T/C (dose: 3.13 mg/kg/injection, schedule: Q04DX003 (ip), vehicle: DMSO): 99 % of control
- T/C (dose: 6.25 mg/kg/injection, schedule: Q04DX003 (ip), vehicle: DMSO): 103 % of control
- T/C (dose: 12.5 mg/kg/injection, schedule: Q04DX003 (ip), vehicle: DMSO): 109 % of control
- T/C (dose: 25.0 mg/kg/injection, schedule: Q04DX003 (ip), vehicle: DMSO): 110 % of control
- T/C (dose: 50.0 mg/kg/injection, schedule: Q04DX003 (ip), vehicle: DMSO): 117 % of control

Compound: CNC(=S)N/N=C\C(C)=N/Nc1ccc(F)cc1
- T/C [8]: 99 % of control
- T/C [9]: 99 % of control
- T/C [10]: 94 % of control

Compound: CC1=CC=CC2=NC(=O)CCN12
- T/C [11]: 100 % of control
- T/C [12]: 100 % of control

Compound: CN1CCC/C1=C\C(=O)c1ccncc1
- T/C [18]: 96 % of control
- T/C [19]: 112 % of control
- T/C [20]: 124 % of control

Compound: CCOc1cc(C(C)c2ccc(OC)cc2)c(OCC)cc1OC (centres undefined)
- T/C [15]: 106 % of control
- T/C [16]: 100 % of control
- T/C [17]: 103 % of control
